Experiments:
T-380 tumors [1] = assay: Hapten biodistribution, premix protocol with bifunctional antibody ECH037.2; type: in vivo, nude mice; parameters: TOTAL RECOV: unit not given here; settings: for % DOSE PER GRAM, KIDNEY / % DOSE PER GRAM, LIVER / % DOSE PER GRAM, TUMOR / FECES / URINE / % DOSE PER GRAM, BLOOD / TUMOR/BLOOD / TOTAL RECOV: premix with 20 µg ECH037.2; for % DOSE PER GRAM, BLOOD: 111In-labeled hapten i.v.; for TUMOR/BLOOD: ratio; for Percent Injected Dose in Feces: premix protocol (Table VI); for %Dose per Gram, Blood / %Dose per Gram, Tumor: premix with 20 µg ECH037.2 (Table VIII)
Experimental: (§1) Two protocols were used for examining the biodistribution of the derivatized haptens in the presence of the bifunctional antibody ECH037.2. In a premix protocol, ECH037.2 and the derivatized hapten were combined prior to injection in the animals. In the prelocalization protocol, ECH037.2 was injected into the animals, and the antibody was allowed to prelocalize for 24 hours prior to injection of the radiolabeled hapten.
(§2) Biodistribution studies were performed in nude mice carrying subcutaneous implants of the human colon carcinoma cell line T-380 which expresses the carcinoembryonic antigen (CEA) recognized by ECH037.2. Briefly, Balb/C Nu/Nu mice were injected subcutaneously with a minced preparation of T-380 tumor implants and maintained for approximately two weeks, or until the tumor implant had grown to a size of approximately 0.5 grams as described by Hagan, P.L., et al. J. Nuc. Med., 26 1418-1423 (1985). Mice were kept in a sterile environment to prevent complications due to bacterial or viral infections. Biodistributions were performed as described by Halpern, S., et al., Cancer Res. 43, 5347-5355 (1983). Briefly, the radiolabeled haptens were injected intravenously in […], and the pharmacokinetics were evaluated at several time points post-injection. At these times, mice were sacrificed and weighed. Organs were removed, their weight recorded, and each organ was then washed in sterile PBS, pH 7.0, and fixed in formalin solution. Samples of blood, urine and feces also were collected and their weight similarly recorded. The organs, or a portion thereof, were transferred to clean tubes and their radioactive content was determined in a well-type gamma-counter.
(§3) Relative radioactive content of each organ was expressed as a percentage of injected dose per organ.
To indium-label the haptens of the invention 10 »l of 0.1 mM ligand was combined with X »l of ¹¹¹InCl₃ (in 50 mM HCl) and (x+10) »l of 0.26 M ammonium citrate, pH 6.0. X is calculated by the following equation: X = (200 »Ci)/(A »Ci/»l) [formula] where A is the specific activity of the ¹¹¹In.
The labeling was done in an acid-washed microfuge tube. After combining all of the components above, the solution was vortexed and allowed to stand at room temperature for 15 minutes.
Incorporation of the ¹¹¹In into the chelating agent was determined by TLC on silica in a methanol/aqueous ammonium acetate solvent system as described by Meares, et al. (Anal. Biochem., 142, 68-75 (1984)). Greater than 95% incorporation of the radioactivity into the chelate was required for the sample to be submitted for a biodistribution assay.
Prior to injection the ¹¹¹In-labeled hapten was diluted into freshly prepared isotonic sodium bicarbonate (1.39% w/v) containing 1 mg/ml normal human serum albumin (Buminate, 25% solution, Travenol Laboratories, Glendale, California) to which the bifunctional antibody had been added. The final composition of the solution was 0.2 mg/ml ECH037.2, 0.5 »M chelate, 0.1 »Ci/»l ¹¹¹In, all in a volume of 2.0 ml. For the biodistribution studies, 100 »l of the solution was injected into the tail vein of each animal.

T-380 tumors [2] = assay: Hapten biodistribution, prelocalization protocol with bifunctional antibody ECH037.2; type: in vivo, nude mice; settings: in words
Experimental: as §1, §2, §3
To indium-label the chelating agents for the prelocalization protocol, 5 »l of 0.1 mM chelating agent was combined with X »l of ¹¹¹InCl₃ (in 50 mM HCl) and (x+5) »l of 0.26 M ammonium citrate, pH 6.0. X was calculated by the following equation: X = 200 »Ci/A »Ci/»l [formula] where A is the specific activity of the ¹¹¹InCl₃ solution. The solution was vortexed and allowed to stand at room temperature for 15 minutes, after which incorporation of ¹¹¹In label into the chelating agent was determined as described for the premix protocol. If at least 95 percent of the ¹¹¹In was bound by the chelating agent, the material was then diluted to a final volume of 2 ml with isotonic (1.39 percent, w/v) sodium bicarbonate containing 1 mg/ml normal human serum albumin. This material (100 »l) then was injected into each tail vein of mice which had each been injected 24 hours earlier with 5 »g of ECH037.2 in 100 »l isotonic sodium bicarbonate containing 1 mg/ml normal human serum albumin.

[3] = system: monoclonal antibody CHA255; assay: Determination of hapten-antibody dissociation rates; type: binding, BALB/c mice; settings: 22°C; indium complex of hapten from CHA255 after 100 fold excess of indium-115 loaded hapten
Experimental: Hapten-antibody dissociation rates were determined using monoclonal antibody CHA255, prepared as described in Example 2A, by measuring the quantity of ¹¹¹In³⁺ chelate released from the antibody hapten complex as a function of time after addition of a 100 fold excess (over antibody binding sites) of indium-115 loaded hapten. Thus, for each hapten, a 700 »l solution was prepared containing: antibody at a concentration of 160 nM; indium loaded hapten, trace labeled with ¹¹¹In (total concentration = 160 nM); normal human serum albumin at a total concentration of 1.5 mg/mL; and isotonic phosphate buffered saline, (10 mM PO₄²⁻, 150 mM NaCl, pH 7.2). Indium-115 loaded hapten was added to a final Concentration of […]. Reactions were stirred by placing the sample containers ir a rack mounted on a vortexer head.
At various times after addition of the excess hapten, […] portions of the reaction solutions were transferred to Centrifree tubes (Amicon Corperation, Danvers, Massachusetts) and centrifuged at 1500xg for eight to ten minutes. The reaction time was taken to be the time between addition of the excess hapten and the time the centrifuge reached the desired velocity. Six timepoints, each in duplicate, were obtained over a range of about two reaction half-lives for each rate constant determination. A 200 »l portion from each centrifuged and uncentrifuged solution was then counted for ¹¹¹In. The relative concentration of free hapten was taken to be the ratio of counts in the centrifuged solution to the uncentrifuged solution at each timepoint. Times were recorded to the nearest tenth of a minute.
Room temperature rate constants were measured without the aid of a constant temperature bath. The ambient temperature remained at 22°±1 C.
Rate constants and standard deviations were obtained from a plot of the logarithm of relative complex concentration vs. time. Data were analyzed using the linear regression module of the RS/1 Program (BBN Software Products Corporation, Cambridge, Massachusetts).
Control samples were included in each experiment to determine: A) that the initial condition of 100% of labeled hapten bound to antibody was met, and B) that in the absence of antibody, 100% of counts were able to penetrate the Centrifree membrane. […]

% DOSE PER GRAM, KIDNEY (T-380 tumors [1]; 24 hours) [% DOSE PER GRAM]	% DOSE PER GRAM, LIVER (T-380 tumors [1]; 24 hours) [% DOSE PER GRAM]	% DOSE PER GRAM, TUMOR (T-380 tumors [1]; 24 hours) [% DOSE PER GRAM]	FECES (T-380 tumors [1]; 24 hours)	URINE (T-380 tumors [1]; 24 hours)	% DOSE PER GRAM, BLOOD (T-380 tumors [1]; 24 hours) [% DOSE PER GRAM]	TUMOR/BLOOD (T-380 tumors [1]; 24 hours)	Percent Injected Dose in Feces (T-380 tumors [1]; 24 hrs.) [Percent Injected Dose]	% DOSE PER GRAM, KIDNEY (T-380 tumors [1]; 48 hours) [% DOSE PER GRAM]	% DOSE PER GRAM, LIVER (T-380 tumors [1]; 48 hours) [% DOSE PER GRAM]	% DOSE PER GRAM, TUMOR (T-380 tumors [1]; 48 hours) [% DOSE PER GRAM]	FECES (T-380 tumors [1]; 48 hours)	URINE (T-380 tumors [1]; 48 hours)	% DOSE PER GRAM, BLOOD (T-380 tumors [1]; 48 hours) [% DOSE PER GRAM]	TUMOR/BLOOD (T-380 tumors [1]; 48 hours)	Percent Injected Dose in Feces (T-380 tumors [1]; 48 hrs.) [Percent Injected Dose]	Structure (SMILES)	further results
2.8	3.8	12.5	6.2% of total injected dose	25.9% of total injected dose	9.3	1.34	6.2	1.4	3.1	14.5	7.9% of total injected dose	49.3% of total injected dose	4.7	3.09	7.9	O=C(O)CN(CC(=O)O)CC(Cc1ccc(NC(=S)NCCO)cc1)N(CC(=O)O)CC(=O)O (stereo not drawn) [EOTUBE]	tumor uptake (T-380 tumors [1]; premix protocol, Figure 1 (24 and 48 hours), in words): outstanding tumor uptake; tumor/blood ratios (T-380 tumors [1]; premix protocol, Figure 2 (24 and 48 hours), in words): good tumor/blood ratios; tumor/organ ratios (T-380 tumors [2]; 24 hours (Figure 7)): high tumor/organ ratios; tumor uptake (T-380 tumors [2]; all time points (Figures 3-5)): high tumor uptake at all time points
4.0	3.1	8.5	5.9% of total injected dose	42.5% of total injected dose	5.9	1.44	5.9	2.5	1.9	8.1	12.9% of total injected dose	52.6% of total injected dose	2.0	4.0	12.9	NCCNC(=S)Nc1ccc(CC(CN(CC(=O)O)CC(=O)O)N(CC(=O)O)CC(=O)O)cc1 (stereo not drawn) [NUBE]	TOTAL RECOV (T-380 tumors [1]; 24 hours): 66.3; %Dose per Gram, Blood (T-380 tumors [1]; 24 hrs. post-injection): 5.8 %Dose per Gram; %Dose per Gram, Tumor (T-380 tumors [1]; 24 hrs. post-injection): 11.7 %Dose per Gram; TOTAL RECOV (T-380 tumors [1]; 48 hours): 74.1; %Dose per Gram, Blood (T-380 tumors [1]; 48 hrs. post-injection): 3.3 %Dose per Gram; %Dose per Gram, Tumor (T-380 tumors [1]; 48 hrs. post-injection): 12.2 %Dose per Gram; %Dose per Gram, Blood (T-380 tumors [1]; 72 hrs. post-injection): 0.7 %Dose per Gram; %Dose per Gram, Tumor (T-380 tumors [1]; 72 hrs. post-injection): 10.5 %Dose per Gram; t1/2, Dissociation Half-Lives [3]: 45.6 min
